This is an account of results in patent US20240197588A1, “ANTIMICROBIAL COMPOSITION” (Conopco, Inc., d/b/a UNILEVER, priority 2021, published 2024).

Series [1] is described as follows: Solubility of oil (detackifying agent) in 75/25 EtOH/Water. The conditions noted are these: neat detackifying agent.
From the text: (§1) Detackifying agents desirable for use in the antimicrobial composition disclosed herein must meet the following criteria: the detackifying agent must be liquid, the detackifying agent must be soluble in at least a 75/25 or higher ratio of ethanol to water (EtOH/Water), which is to be reflective of solubility in the final composition resulting in a clear (i.e., transparent) final antimicrobial composition, and the detackifying agent must have no solvency for water.
The nature of series [2]: Water solubility in oil (solvency of detackifying agent for water). To be noted: neat detackifying agent.
From the text: as §1
Finally, the preferred detackifying agent must itself not have solvency for water such that during application and on drying as the ethanol and water evaporate, the water is also allowed to quickly evaporate leaving behind only the oil and any skin benefit actives/moisturizers if present.
Series [3] in a line: Physical state of detackifying agent at room temperature. It is filed as physicochemical. An excerpt: RT in Table 4 refers to room temperature.

Regarding Dicapryl maleate, the “Solubility in 75/25 EtOH/Water” value in series [1] is on record as less than 10%. Further, in series [2], the “Water solubility in detackifying agent” value was “No”. Besides, in series [3], the “Oil (liquid or solid at RT)” value is reported as “Liquid”.
Consider PPG15 Stearyl ether, for which, in series [1], the “Solubility in 75/25 EtOH/Water” value is recorded as more than 30%. In series [2], the “Water solubility in detackifying agent” value is “No”. The “Oil (liquid or solid at RT)” value in series [3] is listed as “Liquid”.
On to `CCCCC(CC)COC(=O)CCCCCCCCC(=O)OCC(CC)CCCC` (stereo not shown) [Diethyl hexyl sebacate], for which the “Oil (liquid or solid at RT)” value in series [3] is on record as “Liquid”.
With `CC(C)OC(=O)CCCCCCCCC(=O)OC(C)C` [Diisopropyl sebacate], in series [3], the “Oil (liquid or solid at RT)” value was “Liquid”.
For `CC(C)OC(=O)CCCCC(=O)OC(C)C` [Disopropyl adipate], the “Solubility in 75/25 EtOH/Water” value in series [1] is given as more than 30%. In addition, the “Water solubility in detackifying agent” value in series [2] is on record as “No”. Moreover, the “Oil (liquid or solid at RT)” value in series [3] is given as “Liquid”.
Regarding `CC(C)CCCCCCCCCCCCCCCO` [Isostearyl alcohol], in series [3], the “Oil (liquid or solid at RT)” value is reported as “Liquid”.
`CCCCCCCCCCCCOC(=O)C(C)O` (stereo not shown) [Lauryl lactate]: the “Solubility in 75/25 EtOH/Water” value in series [1] is on record as more than 30%. Besides, the “Water solubility in detackifying agent” value in series [2] was “No”. In addition, the “Oil (liquid or solid at RT)” value in series [3] is “Liquid”.
For the compound `CCCCC(CC)COC(=O)CC(O)C(=O)OCC(CC)CCCC` (stereo not shown) [Diethyl hexyl malate], the “Oil (liquid or solid at RT)” value in series [3] is “Liquid”.
For the compound `CCCCC(CC)COC(=O)CCCCC(=O)OCC(CC)CCCC` (stereo not shown) [Diethylhexyl adipate], the “Solubility in 75/25 EtOH/Water” value in series [1] was less than 10%. The “Water solubility in detackifying agent” value in series [2] is given as “No”. The “Oil (liquid or solid at RT)” value in series [3] was “Liquid”.
